# Test results published in patent US20160287558A1, “ORAL PHARMACEUTICAL FORM FOR PREVENTING VASCULAR DISEASES, TABLET AS PHARMACEUTICAL FORM AND GELATIN CAPSULE AS PHARMACEUTICAL FORM” (HYPERMARCAS S.A., priority 2013, published 2016).
# How the values were obtained:
# [1] = From the text: The dissolution curves represent the expression of the release mechanism of active principles within the pharmaceutical form. Thus, it is possible to modulate the release to protect the active pharmaceutical principle, besides of improving the solubilization conditions. Excipients are used to optimize the behavior of the active pharmaceutical principle.
# [2] = tested on: carbonic anhydrase; settings: cited from earlier work
# [3] = ALLHAT study; cited from earlier work
compound,measurement,setting,value
CCCCc1nc(Cl)c(CO)n1Cc1ccc(-c2ccccc2-c2nn[nH]n2)cc1 [losartan],solubility in water,[1],freely soluble
NS(=O)(=O)c1cc2c(cc1Cl)NCNS2(=O)=O [hydrochlorothiazide],inhibition of carbonic anhydrase,[2],very weak inhibitors
same,efficacy and prevention of cardiovascular complications compared with other drugs,[3],as effective as other drugs and further prevents more cardiovascular complications than other drugs
